Data set [1] has as its system Trichophyton mentagrophytes. Description: Test on treatment of trichophytosis in guinea pig (Test Example 2). In kind it is in vivo. The following applies: 0.2 ml of 0.1 % solution in ethanol, once in a day for ten days since 48 hours after infection; guinea pig back skin. The procedure: In the back of male Hartley guinea pig weighing 600° to 700 g, four portions were unhaired in an area of 4 cm^2 respectively and rubbed lightly with sandpaper, to which the second generation of Trichophyton mentagrophytes incubated inversely from another guinea pig was infected at 1×10^5 spores per portion. The test compounds obtained in Example 1 was dissolved in ethanol and 0.2 ml of the resultant 0.1 % solution was applied to the infected portions once in a day for ten days since 48 hours after the infection. Test animal was killed 2 days after the last treatment and 10 tissue specimens from each infected portions were placed on Sabouraud's plates containing cycloheximide and kanamycin, which were incubated at 27° C. for 7 days.
inhibitory ratio ={1-(number of tissue specimens found fungi/number of tissue specimens incubated inversely)}×100

Data set [2] in a line: Side effect test on guinea pig skin (Test Example 3). The data set is classed as in vivo, male Hartley guinea pig. The following applies: 0.2 ml/day of 0.5 % solution in ethanol, once in a day for ten days; lightly rubbed guinea pig skin. The procedure:
Two portions in the back of male Hartley guinea pig weighing 600° to 700 g were unhaired in an area of 4 cm^2 respectively in order to examine side effects of the test compounds. The next day unhaired portions were lightly rubbed with sandpaper. The test compounds obtained in Example 1 was dissolved in ethanol and 0.2 ml/day of the resultant 0.5 % solution was applied to one of the unhaired portions, while 0.2 ml/day of only ethanol was applied to the other portions, once in a day for ten days respectively.

Another data set concerns Trichophyton rubrum. Description: In vitro antifungal activity test (Test Example 1), Sabouraud's agar, Trichophyton rubrum. The data set is classed as cell-based. The following applies: 168 h; (c) Trichophyton rubrum; 27° C., 7 days; read-out: minimal growth-inhibitory concentration (MIC). The procedure: (§1) The antifungal activity of the compound of the present invention against Trichophyton metagrophytes, Trichophyton interdigitale and Trichophyton rubrum was tested employing Sabouraud's agar medium.
(§2) Each test compound shown in Table 4 was dissolved into 1 ml of ethanol and thereto distilled water was added to adjust to the concentration of 1000 μg/ml. In this way twofold dilution series was made, 1 ml of which was respectively taken into shale and therewith 9 ml of Sabouraud's agar medium was mixed to form plate medium.
(§3) In this plate medium was implanted 0.0005 ml of each test fungus at 2×10^6 spores/ml by the microplanter MIP-2 (Sakuma Seisakusho Co., Ltd.) and was incubated at 27° C. for 7 days. The results were shown in Table 2 as the minimal growth-inhibitory concentration (MIC, μg/ml).

For data set [3], the system named is Trichophyton interdigitale. The experiment in a line: In vitro antifungal activity test (Test Example 1), Sabouraud's agar, Trichophyton interdigitale. The data set is classed as cell-based. The following applies: 168 h; (b) Trichophyton interdigitale; 27° C., 7 days; read-out: minimal growth-inhibitory concentration (MIC). The procedure: as §1, §2, §3
Data set [4] concerns Trichophyton mentagrophytes. Description: In vitro antifungal activity test (Test Example 1), Sabouraud's agar, Trichophyton mentagrophytes. The data set is classed as cell-based. The following applies: 168 h; (a) Trichophyton mentagrophytes; 27° C., 7 days; read-out: minimal growth-inhibitory concentration (MIC). The procedure: as §1, §2, §3

Values after ≈ are worked out from the molar mass of the structure shown.

Regarding `CN(Cc1ccc(C(C)(C)C)cc1)Cc1cccc2ccccc12.Cl` [Example 1, N-(4-tert-butylbenzyl)-N-methyl-1-naphthylmethylamine hydrochloride], the inhibitory ratio in data set [1] stood at 82%. In addition, the side effects result in data set [2] was “side effects such as, for instance, erythema and papula were not observed”. The MIC in the data set on Trichophyton rubrum is 0.003 µg/mL; in data set [3], 0.006 µg/mL; in data set [4], 0.0125 µg/mL.
On to `Cc1ccc2ccccc2c1CN(C)Cc1ccc(C(C)(C)C)cc1` [Example 2], for which the MIC in the data set with Trichophyton rubrum stood at 0.1 µg/mL (≈ 0.302 µM); in data set [3] it was 0.1 µg/mL (≈ 0.302 µM); in data set [4] it was 0.2 µg/mL (≈ 0.603 µM).
`Cc1ccc(CN(C)Cc2ccc(C(C)(C)C)cc2)c2ccccc12` [Example 3]: the MIC came to 0.025 µg/mL (≈ 0.0754 µM) in the data set on Trichophyton rubrum, 0.05 µg/mL (≈ 0.151 µM) in data set [3] and 0.1 µg/mL (≈ 0.302 µM) in data set [4].
For `CN(Cc1ccc(C(C)(C)C)cc1)Cc1ccc(F)c2ccccc12` [Example 4], in that order: 0.006 µg/mL (≈ 0.0179 µM), 0.006 µg/mL (≈ 0.0179 µM) and 0.025 µg/mL (≈ 0.0745 µM).
As for `CN(Cc1ccc(C(C)(C)C)cc1)Cc1ccc(Cl)c2ccccc12` [Example 5], the MIC was 0.025 µg/mL (≈ 0.071 µM) with Trichophyton rubrum, 0.1 µg/mL (≈ 0.284 µM) in data set [3] and 0.1 µg/mL (≈ 0.284 µM) in data set [4].
As for `CN(Cc1ccc(C(C)(C)C)cc1)Cc1ccc(Br)c2ccccc12` [Example 6], the MIC in the data set with Trichophyton rubrum was 0.05 µg/mL (≈ 0.126 µM); in data set [3], 0.2 µg/mL (≈ 0.505 µM); in data set [4], 0.2 µg/mL (≈ 0.505 µM).
Regarding `CN(Cc1ccc(C(C)(C)C)cc1)Cc1ccc(I)c2ccccc12` [Example 7], the MIC is 0.39 µg/mL (≈ 0.88 µM) in the data set on Trichophyton rubrum, 0.39 µg/mL (≈ 0.88 µM) in data set [3] and 0.78 µg/mL (≈ 1.76 µM) in data set [4].
As for `CN(Cc1ccc(C(C)(C)C)cc1)Cc1cccc2c([N+](=O)[O-])cccc12` [Example 8], the MIC with Trichophyton rubrum was found to be 0.025 µg/mL (≈ 0.069 µM); in data set [3] it was 0.05 µg/mL (≈ 0.138 µM); in data set [4] it was 0.1 µg/mL (≈ 0.276 µM).
Take `CC(c1cccc2ccccc12)N(C)Cc1ccc(C(C)(C)C)cc1` (stereo not shown) [Example 9, N-4-tert-Butylbenzyl-N-methyl-1-(1-naphthyl)ethylamine]: the MIC amounted to 0.003 µg/mL (≈ 0.00905 µM) in the data set with Trichophyton rubrum, 0.025 µg/mL (≈ 0.0754 µM) in data set [3] and 0.025 µg/mL (≈ 0.0754 µM) in data set [4].
As for `CN(Cc1ccc(C(C)(C)C)cc1)Cc1ccc2ccccc2c1` [Example 10], the MIC in the data set on Trichophyton rubrum came out at 0.39 µg/mL (≈ 1.23 µM); in data set [3] it was 1.56 µg/mL (≈ 4.91 µM); in data set [4] it was 1.56 µg/mL (≈ 4.91 µM).
Take `CCC(C)(C)c1ccc(CN(C)Cc2cccc3ccccc23)cc1` [Example 12, N-Methyl-N-4-tert-pentylbenzyl-1-naphthylmethylamine]: the MIC in the data set with Trichophyton rubrum is 0.006 µg/mL (≈ 0.0181 µM); in data set [3], 0.0125 µg/mL (≈ 0.0377 µM); in data set [4] it was 0.0125 µg/mL (≈ 0.0377 µM).
In the case of `Cc1cccc(CN(C)Cc2cccc3ccccc23)c1` [Example 13], the MIC in the data set on Trichophyton rubrum turned out to be 12.5 µg/mL (≈ 45.4 µM); in data set [3], 25 µg/mL (≈ 90.8 µM); in data set [4], 25 µg/mL (≈ 90.8 µM).
Take `CN(Cc1cccc(C(F)(F)F)c1)Cc1cccc2ccccc12` [Example 14]: the results for the MIC (with Trichophyton rubrum; in data set [3]; in data set [4]) were 6.25 µg/mL (≈ 19 µM), 6.25 µg/mL (≈ 19 µM) and 12.5 µg/mL (≈ 38 µM), respectively.
For `Cc1ccc(CN(C)Cc2cccc3ccccc23)cc1` [Example 15], the MIC in the data set with Trichophyton rubrum is 0.39 µg/mL (≈ 1.42 µM); in data set [3], 3.13 µg/mL (≈ 11.4 µM); in data set [4] it was 0.78 µg/mL (≈ 2.83 µM).
For `CN(Cc1ccc(C2CCCCC2)cc1)Cc1cccc2ccccc12` [Example 16], in that order: 1.56 µg/mL (≈ 4.54 µM), 1.56 µg/mL (≈ 4.54 µM) and 3.13 µg/mL (≈ 9.11 µM).
As to `CN(Cc1ccc(Cl)c(Cl)c1)Cc1cccc2ccccc12` [Example 17], the MIC (with Trichophyton rubrum; in data set [3]; in data set [4]) was 1.56 µg/mL (≈ 4.72 µM) in each case.
For `CCN(Cc1ccc(C(C)(C)C)cc1)Cc1cccc2ccccc12` [Example 18], the MIC in the data set on Trichophyton rubrum worked out at 0.006 µg/mL (≈ 0.0181 µM); in data set [3], 0.05 µg/mL (≈ 0.151 µM); in data set [4], 0.1 µg/mL (≈ 0.302 µM).
Turning to `CCCN(Cc1ccc(C(C)(C)C)cc1)Cc1cccc2ccccc12` [Example 19], the MIC is 0.2 µg/mL (≈ 0.579 µM) with Trichophyton rubrum, 0.2 µg/mL (≈ 0.579 µM) in data set [3] and 0.78 µg/mL (≈ 2.26 µM) in data set [4].
With `CCCCN(Cc1ccc(C(C)(C)C)cc1)Cc1cccc2ccccc12` [Example 20], the MIC in the data set with Trichophyton rubrum came out at 3.13 µg/mL (≈ 8.71 µM); in data set [3], 6.25 µg/mL (≈ 17.4 µM); in data set [4], 6.25 µg/mL (≈ 17.4 µM).
On to `CC(C)c1ccc(CN(C)Cc2cccc3ccccc23)cc1` [Example 22, N-4-Isopropylbenzyl-N-methyl-1-naphthylmethylamine], for which the MIC in the data set on Trichophyton rubrum was found to be 0.0125 µg/mL (≈ 0.0412 µM); in data set [3], 0.1 µg/mL (≈ 0.33 µM); in data set [4], 0.025 µg/mL (≈ 0.0824 µM).
In the same order, the values of `CCc1ccc(CN(C)Cc2cccc3ccccc23)cc1` [Example 23] are 0.1 µg/mL (≈ 0.346 µM), 0.2 µg/mL (≈ 0.691 µM) and 0.1 µg/mL (≈ 0.346 µM).
In the same order, the values of `CCCCc1ccc(CN(C)Cc2cccc3ccccc23)cc1` [Example 24] are 0.1 µg/mL (≈ 0.315 µM), 0.2 µg/mL (≈ 0.63 µM) and 0.1 µg/mL (≈ 0.315 µM).
In the same order, the values of `Cc1ccc(CN(C)Cc2cccc3ccccc23)cc1C` [Example 25] are 0.39 µg/mL (≈ 1.35 µM), 0.78 µg/mL (≈ 2.7 µM) and 0.78 µg/mL (≈ 2.7 µM).
For `Cc1cc(C)cc(CN(C)Cc2cccc3ccccc23)c1` [Example 26], the MIC was 6.25 µg/mL (≈ 21.6 µM) in the data set with Trichophyton rubrum, 12.5 µg/mL (≈ 43.2 µM) in data set [3] and 12.5 µg/mL (≈ 43.2 µM) in data set [4].
For `CN(Cc1ccc(C(C)(C)C)cc1)Cc1c(O)ccc2ccccc12.Cl` [Example 28, N-(4-tert-butylbenzyl)-N-methyl-2-hydroxy-1-naphthylmethylamine hydrochloride], the MIC with Trichophyton rubrum amounted to 6.25 µg/mL; in data set [3], 12.5 µg/mL; in data set [4], 25 µg/mL.
For `CN(Cc1ccc(C(C)(C)C)cc1)Cc1csc2ccccc12` [Example 29, N-4-tert-Butylbenzyl-N-methyl-3-benzo[b]-thienylmethylamine], the MIC (with Trichophyton rubrum; in data set [4]) was 0.05 µg/mL (≈ 0.155 µM) throughout.
Regarding `CCN(Cc1ccc(C(C)(C)C)cc1)Cc1csc2ccccc12` [Example 30], the MIC (with Trichophyton rubrum; in data set [4]) was 0.78 µg/mL (≈ 2.31 µM) throughout.
For `Cc1cccc2c(CN(C)Cc3ccc(C(C)(C)C)cc3)csc12` [Example 33], the MIC amounted to 0.1 µg/mL (≈ 0.296 µM) with Trichophyton rubrum and 0.2 µg/mL (≈ 0.593 µM) in data set [4].
For the compound `CN(Cc1ccc(C(C)(C)C)cc1)Cc1cccc2sccc12` [Example 34], the MIC (with Trichophyton rubrum; in data set [4]) was 0.025 µg/mL (≈ 0.0773 µM) in each case.
Take `CN(Cc1ccc(C(C)(C)C)cc1)Cc1cccc2ccsc12` [Example 35]: the MIC (in the data set on Trichophyton rubrum; in data set [4]) was 0.78 µg/mL (≈ 2.41 µM) each time.
Take `CN(Cc1ccc(C(C)(C)C)cc1)Cc1cccc2c1CCCC2` [Example 39]: the MIC (in the data set with Trichophyton rubrum; in data set [4]) was 0.39 µg/mL (≈ 1.21 µM) each time.
Take `CN(Cc1ccc2ccccc2c1)Cc1ccc(F)c2ccccc12` [Example 43]: the MIC (in the data set with Trichophyton rubrum; in data set [4]) was 0.2 µg/mL (≈ 0.607 µM) throughout.
For `Cc1ccc(CN(C)Cc2ccc3ccccc3c2)c2ccccc12` [Example 49], the MIC (in the data set on Trichophyton rubrum; in data set [4]) was 0.39 µg/mL (≈ 1.2 µM) each time.
As for `CC(c1cccc2ccccc12)N(C)Cc1ccc2ccccc2c1` (stereo not shown) [Example 51], the MIC was determined as 0.2 µg/mL (≈ 0.615 µM) in the data set with Trichophyton rubrum and 0.39 µg/mL (≈ 1.2 µM) in data set [4].
For `CN(Cc1ccc2c(c1)CCCC2)Cc1cccc2ccccc12` [Example 54], the MIC (in the data set with Trichophyton rubrum; in data set [4]) was 0.1 µg/mL (≈ 0.317 µM) throughout.
`CCN(Cc1ccc2c(c1)CCCC2)Cc1cccc2ccccc12` [Example 56]: the MIC (in the data set on Trichophyton rubrum; in data set [4]) was 0.2 µg/mL (≈ 0.607 µM) in each case.
`CCN(Cc1ccc2ccccc2c1)Cc1cccc2ccccc12` [Example 63]: the values for the MIC (with Trichophyton rubrum; in data set [4]) were 0.1 µg/mL (≈ 0.307 µM) and 0.39 µg/mL (≈ 1.2 µM), respectively.
For `CN(Cc1ccc(C(C)(C)C)s1)Cc1cccc2ccccc12` [Example 69], the results for the MIC (in the data set with Trichophyton rubrum; in data set [4]) were 0.025 µg/mL (≈ 0.0773 µM) and 0.05 µg/mL (≈ 0.155 µM), respectively.
